Data reported in patent publication US12338256B2, “Aza-tetracyclic oxazepine compounds and uses thereof” (Genentech, Inc., priority 2022, dated 2025).

What was measured:
[1] = tested on: HPAC (homozygous mutant KRAS G12D human pancreatic cell line); experiment: KRAS 3D-Cell Proliferation Assay, HPAC (Example 503); format: cell-based; conditions: Homo sapiens, HPAC, 168 h, HPAC 3D culture, 7 days, CellTiter-Glo 3D; read-out: Prolif HPAC 3D ATP IC50
Summary of the method: (§1)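 Luminescent ATP readout (CellTiter-Glo 3D, with mechanical mixing) measures growth of cells cultured in 3D after a 7-day compound exposure at 37° C. Percent inhibition is referenced to vehicle (DMSO) and 1 μM staurosporine controls, and IC50 comes from a four-parameter Hill fit.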

[2] = tested on: H1975 (KRAS wild type human lung adenocarcinoma cell line); experiment: KRAS 3D-Cell Proliferation Assay, H1975 (Example 503); format: cell-based; conditions: Homo sapiens, NCI-H1975, 168 h, H1975 3D culture, 7 days, CellTiter-Glo 3D; read-out: Prolif H1975 3D ATP IC50
Summary of the method: as §1

`Cc1nc(N)cc(-c2nc3c4c(nc(OCC5(CN6CC[C@H]7OCC[C@H]76)CC5)nc4c2F)N2C[C@H]4CC[C@H](N4)[C@H]2[C@H](C)O3)c1C(F)(F)F` [Compound 268, 4-((5S,5aS,6S,9R)-1-fluoro-12-((1-(((3aR,6aR)-hexahydro-4H-furo[3,2-b]pyrrol-4-yl)methyl)cyclopropyl)methoxy)-5-methyl-5a,6,7,8,9,10-hexahydro-5H-4-oxa-3,10a,11,13,14-pentaaza-6,9-methanonaphtho[1,8-ab]heptalene-2-yl)-6-methyl-5-(trifluoromethyl)pyridin-2-amine] gave an IC50 [1] of 0.00217 µM and an IC50 [2] of 1.7 µM.
`COCC1(F)CCN(CC2(COc3nc4c5c(nc(-c6cc(N)nc(C)c6C(F)(F)F)c(F)c5n3)O[C@@H](C)[C@@H]3[C@@H]5CC[C@H](CN43)N5)CC2)C1` (stereo partly drawn) [Compound 270, 4-((5S,5aS,6S,9R)-1-fluoro-12-((1-((3-fluoro-3-(methoxymethyl)pyrrolidin-1-yl)methyl)cyclopropyl)methoxy)-5-methyl-5a,6,7,8,9,10-hexahydro-5H-4-oxa-3,10a,11,13,14-pentaaza-6,9-methanonaphtho[1,8-ab]heptalen-2-yl)-6-methyl-5-(trifluoromethyl)pyridin-2-amine] gave an IC50 [1] of 0.00252 µM and an IC50 [2] of 2.48 µM.
In the case of `COC1(C(F)F)CN(CC2(COc3nc4c5c(nc(-c6cc(N)nc(C)c6C(F)(F)F)c(F)c5n3)O[C@@H](C)[C@@H]3[C@@H]5CC[C@H](CN43)N5)CC2)C1` [Compound 271, 4-((5S,5aS,6S,9R)-12-((1-((3-(difluoromethyl)-3-methoxyazetidin-1-yl)methyl)cyclopropyl)methoxy)-1-fluoro-5-methyl-5a,6,7,8,9,10-hexahydro-5H-4-oxa-3,10a,11,13,14-pentaaza-6,9-methanonaphtho[1,8-ab]heptalene-2-yl)-6-methyl-5-(trifluoromethyl)pyridin-2-amine], the IC50 [1] is reported as 0.00449 µM and the IC50 [2] is reported as 10.9 µM.
`COC1(CF)CN(CC2(COc3nc4c5c(nc(-c6cc(N)nc(C)c6C(F)(F)F)c(F)c5n3)O[C@@H](C)[C@@H]3[C@@H]5CC[C@H](CN43)N5)CC2)C1` [Compound 272] showed an IC50 [1] of 0.00458 µM and an IC50 [2] of 5.48 µM.
Compound `COC1(C)CN(CC2(COc3nc4c5c(nc(-c6cc(N)nc(C)c6C(F)(F)F)c(F)c5n3)O[C@@H](C)[C@@H]3[C@@H]5CC[C@H](CN43)N5)CC2)C1` [Compound 273, 4-((5S,5aS,6S,9R)-1-fluoro-12-((1-((3-methoxy-3-methylazetidin-1-yl)methyl)cyclopropyl)methoxy)-5-methyl-5a,6,7,8,9,10-hexahydro-5H-4-oxa-3,10a,11,13,14-pentaaza-6,9-methanonaphtho[1,8-ab]heptalene-2-yl)-6-methyl-5-(trifluoromethyl)pyridin-2-amine] has an IC50 [1] of 0.00653 µM and an IC50 [2] of 3.19 µM.
`Cc1nc(N)cc(-c2nc3c4c(nc(OCC5(CN6CC(C(F)F)C6)CC5)nc4c2F)N2C[C@H]4CC[C@H](N4)[C@H]2[C@H](C)O3)c1C(F)(F)F` [Compound 274, 4-((5S,5aS,6S,9R)-12-((1-((3-(difluoromethyl)90eptalene-1-yl)methyl)cyclopropyl)methoxy)-1-fluoro-5-methyl-5a,6,7,8,9,10-hexahydro-5H-4-oxa-3,10a,11,13,14-pentaaza-6,9-methanonaphtho[1,8-ab]heptalene-2-yl)-6-methyl-5-(trifluoromethyl)pyridin-2-amine] showed an IC50 [1] of 0.00755 µM and an IC50 [2] of 1.07 µM.
For `CO[C@@H]1CCN(CC2(COc3nc4c5c(nc(-c6cc(N)nc(C)c6C(F)(F)F)c(F)c5n3)O[C@@H](C)[C@@H]3[C@@H]5CC[C@H](CN43)N5)CC2)C[C@@H]1F` [Compound 275, 4-((5S,5aS,6S,9R)-1-fluoro-12-((1-(((3S,4R)-3-fluoro-4-methoxypiperidin-1-yl)methyl)cyclopropyl)methoxy)-5-methyl-5a,6,7,8,9,10-hexahydro-5H-4-oxa-3,10a,11,13,14-pentaaza-6,9-methanonaphtho[1,8-ab]heptalene-2-yl)-6-methyl-5-(trifluoromethyl)pyridin-2-amine], the IC50 [1] was 0.00329 µM and the IC50 [2] was 5.18 µM.
`Cc1nc(N)cc(-c2nc3c4c(nc(OCC5(CN6CCC(C(F)F)C6)CC5)nc4c2F)N2C[C@H]4CC[C@H](N4)[C@H]2[C@H](C)O3)c1C(F)(F)F` (stereo partly drawn) [Compound 276, 4-((5S,5aS,6S,9R)-12-((1-((3-(difluoromethyl)pyrrolidin-1-yl)methyl)cyclopropyl)methoxy)-1-fluoro-5-methyl-5a,6,7,8,9,10-hexahydro-5H-4-oxa-3,10a,11,13,14-pentaaza-6,9-methanonaphtho[1,8-ab]heptalen-2-yl)-6-methyl-5-(trifluoromethyl)pyridin-2-amine] showed an IC50 [1] of 0.00182 µM and an IC50 [2] of 1.62 µM.
Compound `Cc1nc(N)cc(-c2nc3c4c(nc(OCC5(CN6CC7(C6)CC7(F)F)CC5)nc4c2F)N2C[C@H]4CC[C@H](N4)[C@H]2[C@H](C)O3)c1C(F)(F)F` [Compound 277, 4-((5S,5aS,6S,9R)-12-((1-((1,1-difluoro-5-azaspiro[2.3]hexan-5-yl)methyl)cyclopropyl)methoxy)-1-fluoro-5-methyl-5a,6,7,8,9,10-hexahydro-5H-4-oxa-3,10a,11,13,14-pentaaza[6,9]methanonaphtho[1,8-ab]heptalene-2-yl)-6-methyl-5-(trifluoromethyl)pyridin-2-amine] has an IC50 [1] of 0.00209 µM and an IC50 [2] of 0.974 µM.
`Cc1nc(N)cc(-c2nc3c4c(nc(OCC5(CN6CCC7(C6)CC7(F)F)CC5)nc4c2F)N2C[C@H]4CC[C@H](N4)[C@H]2[C@H](C)O3)c1C(F)(F)F` (stereo partly drawn) [Compound 279, 4-((5S,5aS,6S,9R)-12-((1-((1,1-difluoro-5-azaspiro[2.4]heptan-5-yl)methyl)cyclopropyl)methoxy)-1-fluoro-5-methyl-5a,6,7,8,9,10-hexahydro-5H-4-oxa-3,10a,11,13,14-pentaaza[6,9]methanonaphtho[1,8-ab]heptalene-2-yl)-6-methyl-5-(trifluoromethyl)pyridin-2-amine] gave an IC50 [1] of 0.00202 µM and an IC50 [2] of 1.27 µM.
For `Cc1nc(N)cc(-c2nc3c4c(nc(OCC5(CN6CC7CCOC7C6)CC5)nc4c2F)N2C[C@H]4CC[C@H](N4)[C@H]2[C@H](C)O3)c1C(F)(F)F` (stereo partly drawn) [Compound 280, 4-((5S,5aS,6S,9R)-1-fluoro-12-((1-((hexahydro-5H-furo[2,3-c]pyrrol-5-yl)methyl)cyclopropyl)methoxy)-5-methyl-5a,6,7,8,9,10-hexahydro-5H-4-oxa-3,10a,11,13,14-pentaaza-6,9-methanonaphtho[1,8-ab]heptalene-2-yl)-6-methyl-5-(trifluoromethyl)pyridin-2-amine], the IC50 [1] was 0.00177 µM and the IC50 [2] was 1.34 µM.
In the case of `Cc1nc(N)cc(-c2nc3c4c(nc(OCC5(CN6CC7(CCCO7)C6)CC5)nc4c2F)N2C[C@H]4CC[C@H](N4)[C@H]2[C@H](C)O3)c1C(F)(F)F` [Compound 281, 4-((5S,5aS,6S,9R)-12-((1-((5-oxa-2-azaspiro[3.4]octan-2-yl)methyl)cyclopropyl)methoxy)-1-fluoro-5-methyl-5a,6,7,8,9,10-hexahydro-5H-4-oxa-3,10a,11,13,14-pentaaza[6,9]methanonaphtho[1,8-ab]heptalene-2-yl)-6-methyl-5-(trifluoromethyl)pyridin-2-amine], the IC50 [1] is reported as 0.0086 µM and the IC50 [2] is reported as 2.43 µM.
In the case of `Cc1nc(N)cc(-c2nc3c4c(nc(OCC5(CN6CCCC67CCOC7)CC5)nc4c2F)N2C[C@H]4CC[C@H](N4)[C@H]2[C@H](C)O3)c1C(F)(F)F` (stereo partly drawn) [Compound 282, 4-((5S,5aS,6S,9R)-12-((1-((7-oxa-1-azaspiro[4.4]nonan-1-yl)methyl)cyclopropyl)methoxy)-1-fluoro-5-methyl-5a,6,7,8,9,10-hexahydro-5H-4-oxa-3,10a,11,13,14-pentaaza[6,9]methanonaphtho[1,8-ab]heptalene-2-yl)-6-methyl-5-(trifluoromethyl)pyridin-2-amine], the IC50 [1] is reported as 0.00396 µM and the IC50 [2] is reported as 2.45 µM.
In the case of `Cc1nc(N)cc(-c2nc3c4c(nc(OCC5(CN6CC[C@H](F)C6)CC5)nc4c2F)N2C[C@H]4CC[C@H](N4)[C@H]2[C@H](C)O3)c1C(F)(F)F` [Compound 283, 4-((5S,5aS,6S,9R)-1-fluoro-12-((1-(((S)-3-fluoropyrrolidin-1-yl)methyl)cyclopropyl)methoxy)-5-methyl-5a,6,7,8,9,10-hexahydro-5H-4-oxa-3,10a,11,13,14-pentaaza-6,9-methanonaphtho[1,8-ab]heptalene-2-yl)-6-methyl-5-(trifluoromethyl)pyridin-2-amine], the IC50 [1] is reported as 0.00158 µM and the IC50 [2] is reported as 0.577 µM.
`Cc1nc(N)cc(-c2nc3c4c(nc(OCC5(CN6CC[C@@H](F)C6)CC5)nc4c2F)N2C[C@H]4CC[C@H](N4)[C@H]2[C@H](C)O3)c1C(F)(F)F` [Compound 284, 4-((5S,5aS,6S,9R)-1-fluoro-12-((1-(((R)-3-fluoropyrrolidin-1-yl)methyl)cyclopropyl)methoxy)-5-methyl-5a,6,7,8,9,10-hexahydro-5H-4-oxa-3,10a,11,13,14-pentaaza-6,9-methanonaphtho[1,8-ab]heptalen-2-yl)-6-methyl-5-(trifluoromethyl)pyridin-2-amine] was tested, and the IC50 [1] was 0.00123 µM and the IC50 [2] was 0.49 µM.
`Cc1nc(N)cc(-c2nc3c4c(nc(OCC5(CN6CC7(CCC7(F)F)C6)CC5)nc4c2F)N2C[C@H]4CC[C@H](N4)[C@H]2[C@H](C)O3)c1C(F)(F)F` [Compound 285, 4-((5S,5aS,6S,9R)-12-((1-((5,5-difluoro-2-azaspiro[3.3]heptan-2-yl)methyl)cyclopropyl)methoxy)-1-fluoro-5-methyl-5a,6,7,8,9,10-hexahydro-5H-4-oxa-3,10a,11,13,14-pentaaza[6,9]methanonaphtho[1,8-ab]heptalene-2-yl)-6-methyl-5-(trifluoromethyl)pyridin-2-amine] gave an IC50 [1] of 0.00305 µM and an IC50 [2] of 0.608 µM.
